Test results: ChEMBL document CHEMBL1131178, “Novel disaccharide inhibitors of human glioma cell division” (1998)

Tested on: C6
Experiment: Inhibitory activity against rat C6 Glioma cells stimulated with Fetal bovine serum; Not detectable
Assay type: functional, cell-based

Question: With `CCCCCCCCO[C@H]1O[C@@H](CO)[C@@H](OCC(CO)(CO)COS(=O)(=O)O)[C@H](O[C@@H]2OC(C)[C@@H](O)[C@H](O)[C@@H]2O)[C@@H]1NC(C)=O` (some centres undefined) as the molecule, how does the ID50 read?
Answer: The ID50 was “Not detectable”.

Question: With `CCCCCCCCO[C@H]1O[C@@H](COCC(CO)(CO)COS(=O)(=O)O)[C@@H](OCC(CO)(CO)COS(=O)(=O)O)[C@H](O[C@@H]2O[C@@H](C)[C@@H](O)[C@H](O)[C@@H]2O)[C@@H]1NC(C)=O` as the molecule, how does the ID50 read?
Answer: Its ID50 is “Not detectable”.

Question: Which ID50 does the source give for `CCCCCCCCO[C@H]1O[C@@H](COCC(CO)(CO)COS(=O)(=O)O)C(O)[C@H](O[C@@H]2O[C@@H](C)[C@@H](O)[C@H](O)[C@@H]2O)[C@@H]1NC(C)=O` (some centres undefined) here?
Answer: The ID50 was “Not detectable”.

Question: How did the ID50 turn out when `CCCCCCCCOC1OC(COCC(CO)(CO)CO)C(O)C(OC2OC(C)C(O)C(O)C2O)C1NC(C)=O` (centres undefined) was run?
Answer: The ID50 was “Not detectable”.
